# Laboratory results taken from patent publication US12318373B2, “Methods of treating gastrointestinal stromal tumors” (Deciphera Pharmaceuticals, LLC, priority 2019, dated 2025).
# Columns and labels:
# [1] = Example 9: food effect (high-fat meal) on exposure; type: in vivo
# Procedure: The effect of a high-fat breakfast on ripretinib and Compound A exposure was evaluated. A high fat meal consisted of approximately 150, 250, and 500-600 calories from protein, carbohydrate, and fat, respectively. […] Therefore, ripretinib may be taken with or without food at approximately same time each day.
# [2] = test system: patients with advanced GIST; assay: Example 2: patient reported outcomes (EQ-5D-5L VAS, EORTC QLQ-C30); type: in vivo, human; conditions: 150 mg QD
# Procedure: Patient reported outcomes were assessed by EQ-5D-5L, which provides a visual analogue scale (VAS), and EORTC QLQ-C30, which provides physical function and role function scales. The EQ-5D-5L VAS (or EQ-VAS) records the respondent's overall current health on a vertical visual analogue scale and provides a quantitative measure of the patient's perception of overall health. These patient outcomes were reported across 28-day cycles of receiving 150 mg QD ripretinib or placebo.
# The EORTC QLQ-C30 is an assessment of function and symptoms of therapy by cancer patient, and is not specific to any cancer. The EORTC QLQ-C30 is a 30-question plus one global health status, including 5 functional scales, 3 symptom scales and a global health status.
# [3] = test system: GIST; assay: Example 3: clinical study in second-line through fourth-line plus GIST, efficacy at ≥100 mg daily; type: in vivo, human; conditions: for Objective Response Rate by Best Response Includes Unconfirmed: RECIST 1.1, investigator-assessed
# Procedure: Results. Data from 178 GIST patients receiving ripretinib at doses of ≥100 mg daily are noted in Table 2. The table includes investigator-assessed objective response rate (ORR) by best response, disease control rate (DCR) and median progression free survival (mPFS), all of which were determined by Response Evaluation Criteria in Solid Tumors (RECIST) version 1.1.
# [4] = test system: advanced GIST; assay: Example 2: randomized, double-blind, placebo-controlled study, efficacy (PFS, ORR, OS); type: in vivo, human; conditions: for PFS by BICR: events, % / PFS by BICR: number of events: N = 85
# Source text: Example 2. A Randomized, Double-blind, Placebo-controlled, International, Multicenter Study to Evaluate the Safety, Tolerability, and Efficacy of Ripretinib Compared to Placebo in Patients with Advanced GIST Whose Previous Therapies Have Included Imatinib, Sunitinib, and Regorafenib
# This study was a randomized (2:1), double-blind, placebo-controlled, international, multicenter study to evaluate the safety, tolerability, and efficacy of ripretinib compared to placebo in 129 patients with advanced GIST whose previous therapies have included at least imatinib, sunitinib, and regorafenib. Patients were randomized 2:1 to either 150 mg of ripretinib or placebo once daily. The primary efficacy endpoint is progression-free survival (PFS) as determined by independent radiologic review using modified Response Evaluation Criteria in Solid Tumors (RECIST). Secondary endpoints as determined by independent radiologic review using modified RECIST include Objective Response Rate (ORR), Time to Tumor Progression (TTP) and Overall Survival (OS).
# Patients whose disease progressed during the double blind phase of the study were escalated to 150 mg BID ripretinib, continued at the 150 mg QD dose, or discontinued in an open label-phase of the study.
# [5] = Example 8: coadministration with proton-pump inhibitor (pantoprazole), exposure; type: in vivo
# Procedure: The effect of a proton-pump inhibitor on the exposure of ripretinib was evaluated.
# [6] = Example 7: coadministration with strong CYP3A inhibitor (itraconazole), exposure; type: in vivo; conditions: coadministration of ripretinib with itraconazole
# [7] = 150 mg dose with a high-fat meal
# [8] = 150 mg once daily, BICR, modified RECIST 1.1
smiles,measurement,setting,value
CCn1c(=O)c(-c2cc(NC(=O)Nc3ccccc3)c(F)cc2Br)cc2cnc(NC)cc21 [ripretinib],AUC0-24h higher by,[1]; [7],30%
same,Cmax higher by,[1]; [7],22%
same,Clinical significance of the food effect,[1]; based on exposure-response analysis,not considered to be clinically significant
same,"EORTC QLQ-C30 role function score, average improvement from baseline to C2D1",[2]; 70 patients,3.5
same,"EQ-VAS score, average improvement from baseline to Cycle 2, Day 1 (C2D1)",[2]; 70 patients,3.7
same,"EORTC QLQ-C30 physical function score, average improvement from baseline to C2D1",[2]; 71 patients,1.6
same,EORTC QLQ-C30 Question C29 (overall health) score improvement,"[2]; scale 1 to 7, 70 patients",0.20
same,EORTC QLQ-C30 Question C30 (overall quality of life) score improvement,"[2]; scale 1 to 7, 70 patients",0.28
same,Disease Control Rate at 3 Months,[3]; Fourth-Line (n = 60),73%
same,Median Progression Free Survival (mPFS),[3]; Fourth-Line (n = 60),30 weeks
same,Objective Response Rate by Best Response (Confirmed Only),[3]; Fourth-Line (n = 60),(8%)
same,Objective Response Rate by Best Response Includes Unconfirmed,[3]; Fourth-Line (n = 60),15%
same,Disease Control Rate at 3 Months,[3]; Second-Line (n = 37),81%
same,Median Progression Free Survival (mPFS),[3]; Second-Line (n = 37),42 weeks
same,Objective Response Rate by Best Response (Confirmed Only),[3]; Second-Line (n = 37),(22%)
same,Objective Response Rate by Best Response Includes Unconfirmed,[3]; Second-Line (n = 37),30%
same,Disease Control Rate at 3 Months,[3]; Third-Line (n = 31),80%
same,Median Progression Free Survival (mPFS),[3]; Third-Line (n = 31),40 weeks
same,Objective Response Rate by Best Response (Confirmed Only),[3]; Third-Line (n = 31),(13%)
same,Objective Response Rate by Best Response Includes Unconfirmed,[3]; Third-Line (n = 31),23%
same,Disease Control Rate at 3 Months,[3]; ≥Fourth-Line (n = 110),66%
same,Median Progression Free Survival (mPFS),[3]; ≥Fourth-Line (n = 110),24 weeks
same,Objective Response Rate by Best Response (Confirmed Only),[3]; ≥Fourth-Line (n = 110),(7%)
same,Objective Response Rate by Best Response Includes Unconfirmed,[3]; ≥Fourth-Line (n = 110),11%
same,"Benefit over placebo (PFS, OS), primary Exon 11 and Exon 9 mutation","[4]; 150 mg QD, FIGS. 17A, 17B",derive a benefit
same,OS hazard ratio (HR) vs placebo,[4]; 150 mg once daily,0.36
same,OS rate at 12 months,[4]; 150 mg once daily,65.4%
same,PFS hazard ratio (HR) compared to placebo,[4]; 150 mg once daily,0.15
same,PFS rate at 6 months,[4]; 150 mg once daily,51%
same,"Patients with PD, %",[4]; 150 mg once daily,18.8%
same,"Patients with PD, number",[4]; 150 mg once daily,16
same,"Patients with stable disease (SD) for 12 weeks, number",[4]; 150 mg once daily,40
same,Reduction of risk of disease progression or death compared to placebo,[4]; 150 mg once daily,85%
same,Median PFS,[4]; [8],6.3 months
same,Objective response rate (ORR),[4]; [8],9.4%
same,Median PFS,"[4]; 150 mg once daily, initial ripretinib arm",27.6 weeks
same,Median OS,"[4]; 150 mg once daily, patients initially randomized to ripretinib",15.1 months
same,"PFS compared to placebo in subgroups with Exon 9, 11, 13 or 17 KIT mutations",[4]; FIG. 26A-D,PFS benefit in all assessed patient subgroups
same,"PFS by BICR: events, %",[4]; double-blind cut,(60) %
same,PFS by BICR: number of events,[4]; double-blind cut,51
same,"PFS by BICR: events, %",[4]; open-label cut,(75) %
same,PFS by BICR: number of events,[4]; open-label cut,64
same,Median OS,[4]; double-blind cut,15 months
same,Median PFS by BICR,[4]; double-blind cut,6.3 months
same,OS hazard ratio,[4]; double-blind cut,0.36
same,Overall Response Rate by BICR,[4]; double-blind cut,9%
same,"Overall Survival: deaths, %",[4]; double-blind cut,(31) %
same,Overall Survival: number of deaths,[4]; double-blind cut,26
same,"PFS by BICR: deaths, %",[4]; double-blind cut,(6) %
same,"PFS by BICR: deaths, number",[4]; double-blind cut,5
same,"PFS by BICR: progressive disease, %",[4]; double-blind cut,(54) %
same,"PFS by BICR: progressive disease, number",[4]; double-blind cut,46
same,PFS hazard ratio,[4]; double-blind cut,0.15
same,Median OS,[4]; open-label cut,Not Reached
same,Median PFS by BICR,[4]; open-label cut,6.3 months
same,OS hazard ratio,[4]; open-label cut,0.43
same,Overall Response Rate by BICR,[4]; open-label cut,12%
same,"Overall Survival: deaths, %",[4]; open-label cut,(45) %
same,Overall Survival: number of deaths,[4]; open-label cut,38
same,"PFS by BICR: deaths, %",[4]; open-label cut,(7) %
same,"PFS by BICR: deaths, number",[4]; open-label cut,6
same,"PFS by BICR: progressive disease, %",[4]; open-label cut,(68) %
same,"PFS by BICR: progressive disease, number",[4]; open-label cut,58
same,PFS hazard ratio,[4]; open-label cut,0.16
same,Median PFS,[4]; patients crossed over from placebo to ripretinib,20.0 weeks
same,Median OS,[4]; patients who crossed over from placebo to ripretinib,11.6 months
same,Effect on ripretinib exposure,[5]; 40 mg QD pantoprazole with 150 mg QD ripretinib,did not affect
same,Difference in plasma exposure,[5]; ripretinib coadministered with pantoprazole,No clinically significant differences
same,Increase in AUC0-inf,[6],99%
same,Increase in Cmax,[6],36%
